# From PubChem BioAssay (NCI)
#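 A five-concentration, 48-hour dose response in 96-well plates underlies each endpoint, interpolated linearly between surrounding concentrations. At the TGI there is no net growth.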
# Columns and labels:
# Assay in all cases: NCI tumour cell line growth inhibition, 48 h
# 786-0 renal = test system: 786-0 renal
# CAKI-1 renal = test system: CAKI-1 renal
# HCT-15 colon = test system: HCT-15 colon
# HOP-92 NSCLC = test system: HOP-92 NSCLC
# HT29 colon = test system: HT29 colon
# K-562 leukemia = test system: K-562 leukemia
# KM12 colon = test system: KM12 colon
# MCF7 breast = test system: MCF7 breast
# MDA-MB-435 = test system: MDA-MB-435
# OVCAR-4 ovarian = test system: OVCAR-4 ovarian
# OVCAR-5 ovarian = test system: OVCAR-5 ovarian
# RPMI-8226 leukemia = test system: RPMI-8226 leukemia
# RXF 393 renal = test system: RXF 393 renal
# SF-268 CNS = test system: SF-268 CNS
# SNB-19 CNS = test system: SNB-19 CNS
# SW-620 colon = test system: SW-620 colon
# UACC-62 melanoma = test system: UACC-62 melanoma
# IGROV1 ovarian = test system: IGROV1 ovarian
# SR leukemia = test system: SR leukemia
Structure (SMILES),TGI (786-0 renal) [µM],TGI (CAKI-1 renal) [µM],TGI (HCT-15 colon) [µM],TGI (HOP-92 NSCLC) [µM],TGI (HT29 colon) [µM],TGI (K-562 leukemia) [µM],TGI (KM12 colon) [µM],TGI (MCF7 breast) [µM],TGI (MDA-MB-435) [µM],TGI (OVCAR-4 ovarian) [µM],TGI (OVCAR-5 ovarian) [µM],TGI (RPMI-8226 leukemia) [µM],TGI (RXF 393 renal) [µM],TGI (SF-268 CNS) [µM],TGI (SNB-19 CNS) [µM],TGI (SW-620 colon) [µM],TGI (UACC-62 melanoma) [µM],TGI (IGROV1 ovarian) [µM],TGI (SR leukemia) [µM]
COc1ccc(/C(=N/OCCCC(=O)O)c2cccs2)cc1,> 100,> 100,> 100,> 100,> 100,> 100,> 100,> 100,> 100,> 100,> 100,> 100,> 100,> 100,> 100,> 100,> 100,,
C/C1=C\[C@@H](C)C[C@@H](C)OC(=O)[C@@H](C)NC(=O)[C@H](Cc2ccc(O)c(Br)c2)N(C)C(=O)CNC(=O)[C@H](C)C1,5.84,,44.2,0.0993,> 100,> 100,> 100,> 100,> 44.3,,> 100,56.1,< 0.0429,1.89,> 100,> 100,> 55.1,0.033,
Cc1cc2c3c(nc2c2cc[nH]c(C)c12)CCCC3,3.04,,3.54,7.3,6.25,5.65,7.13,3.02,3.63,6.45,13.6,4.56,,14,,3.79,3.32,5.4,4.29
C1=C2C3=[N+](CCCC3)CC2Cc2sccc21 (stereo not drawn),> 100,> 100,> 100,> 100,> 100,> 100,> 100,> 100,> 100,> 100,> 100,,> 100,> 100,> 100,> 100,> 100,> 100,
CCOC(=O)c1ccc(NCc2ccc3nc(OC)c(OC)nc3c2)cc1,> 100,> 100,> 100,> 100,> 100,> 100,> 100,> 100,> 100,> 100,> 100,,,> 100,> 100,> 100,> 100,> 100,> 100
CCCC(=O)Nc1cc(/C=C/C(=O)N2CC(CCl)c3ccc([N+](=O)[O-])cc32)n(C)c1 (stereo not drawn),> 100,> 100,> 100,,> 100,> 100,> 100,> 100,> 100,> 100,> 100,> 100,> 100,> 100,> 100,> 100,> 100,> 100,> 100
CC1(C)CC[C@]2(C)[C@@H](O)C[C@]3(C)C(=CC[C@@H]4[C@@]5(C)CC[C@H](O)C(C)(C)[C@@H]5CC[C@]43C)[C@@H]2C1,> 100,> 100,> 100,42.3,> 100,> 100,> 100,> 100,> 100,> 100,> 100,,22.4,> 100,> 100,> 100,> 100,> 100,
COc1ccc(CC2Cc3ccccc3CC(=O)N2)cc1OC (stereo not drawn),> 100,> 100,> 100,> 100,> 100,> 100,> 100,> 100,> 100,> 100,> 100,,,,> 100,> 100,> 100,> 100,> 100
Nc1nncc2n[nH]nc12,> 100,> 100,> 100,,> 100,,> 100,> 100,> 100,,> 100,> 100,> 100,> 100,> 100,> 100,> 100,> 100,> 100
COC(=O)[C@H](Cc1ccccc1)NC(=O)OCC1OC(n2cc(C)c(=O)[nH]c2=O)CC1N=[N+]=[N-] (stereo partly drawn),> 100,> 100,> 100,> 100,> 100,> 100,> 100,> 100,> 100,> 100,> 100,> 100,> 100,> 100,> 100,> 100,> 100,> 100,
Cc1ccc(C(=O)C2C=C(c3ccc(C)cc3)SC3C=CCC32)cc1 (stereo not drawn),38.3,42.4,47.9,34,43.1,> 100,30.3,,30,75.7,44.4,80.1,37.7,,> 100,29.8,38.8,40.1,58.2
COC(=O)Cc1cccc2c(=O)c(S(=O)(=O)NC(=O)Nc3ccc(Cl)cc3)c(-c3ccccc3)oc12,> 100,74.3,> 100,> 100,> 100,> 100,> 100,> 100,> 100,> 100,> 100,,,> 100,> 100,> 100,> 100,> 100,> 100
O=C(O)CN1CCN2CCCCCCCCN(CC1)CCN(CC(=O)O)CC2,> 100,> 100,> 100,> 100,> 100,> 100,> 100,> 100,> 100,> 100,> 100,> 100,,,> 100,> 100,> 100,> 100,
CC(=O)OCCCCn1nncc1Cn1ccc(=O)n(Cc2cnnn2CCCCOC(C)=O)c1=O,> 100,> 100,> 100,> 100,,,> 100,> 100,> 100,> 100,> 100,> 100,> 100,> 100,> 100,> 100,,> 100,
